pKd: −log10 of the molar value.
What was measured:
Test in all cases: KINOMEscan competition binding
EPHA3 (human) = EPHA3 (human) (UniProt P29320)
RIOK2 (human) = RIOK2 (human) (UniProt Q9BVS4)
HIPK1 (human) = HIPK1 (human) (UniProt Q86Z02)
CDC42BPG (human) = CDC42BPG (human) (UniProt Q6DT37)
[1] = target: ABL1 (human), P00519 [H396P]
TNK2 (human) = TNK2 (human) (UniProt Q07912)
LIMK1 (human) = LIMK1 (human) (UniProt P53667)
MAP3K10 (human) = MAP3K10 (human) (UniProt Q02779)
MAP4K2 (human) = MAP4K2 (human) (UniProt Q12851)
PIM3 (human) = PIM3 (human) (UniProt Q86V86)
CDK8 (human) = CDK8 (human) (UniProt P49336)
[2] = target: ABL1 (human), P00519 [T315I]
MAP2K2 (human) = MAP2K2 (human) (UniProt P36507)
HIPK2 (human) = HIPK2 (human) (UniProt Q9H2X6)
ROS1 (human) = ROS1 (human) (UniProt P08922)
EPHB3 (human) = EPHB3 (human) (UniProt P54753)
TTK (human) = TTK (human) (UniProt P33981)
MAP2K3 (human) = MAP2K3 (human) (UniProt P46734)
HUNK (human) = HUNK (human) (UniProt P57058)
[3] = target: FLT3 (human), P36888 [D835Y]
HCK (human) = HCK (human) (UniProt P08631)
PRKCQ (human) = PRKCQ (human) (UniProt Q04759)
BTK (human) = BTK (human) (UniProt Q06187)
PRKD3 (human) = PRKD3 (human) (UniProt O94806)
MYLK2 (human) = MYLK2 (human) (UniProt Q9H1R3)
STK25 (human) = STK25 (human) (UniProt O00506)
MST1R (human) = MST1R (human) (UniProt Q04912)
LTK (human) = LTK (human) (UniProt P29376)
IRAK1 (human) = IRAK1 (human) (UniProt P51617)
MERTK (human) = MERTK (human) (UniProt Q12866)
[4] = target: ABL1 (human), P00519 [Q252H]
CSF1R (human) = CSF1R (human) (UniProt P07333)
[5] = target: MET (human), P08581 [M1250T]
STK10 (human) = STK10 (human) (UniProt O94804)
CDK16 (human) = CDK16 (human) (UniProt Q00536)
[6] = target: JAK1 JH2 pseudokinase (human) (UniProt P23458)
FGFR3 (human) = FGFR3 (human) (UniProt P22607)
[7] = target: FLT3 (human), P36888 [N841I]
ANKK1 (human) = ANKK1 (human) (UniProt Q8NFD2)
STK4 (human) = STK4 (human) (UniProt Q13043)

Sequence of CDK16 (human) (Q00536 whole entry, looked up): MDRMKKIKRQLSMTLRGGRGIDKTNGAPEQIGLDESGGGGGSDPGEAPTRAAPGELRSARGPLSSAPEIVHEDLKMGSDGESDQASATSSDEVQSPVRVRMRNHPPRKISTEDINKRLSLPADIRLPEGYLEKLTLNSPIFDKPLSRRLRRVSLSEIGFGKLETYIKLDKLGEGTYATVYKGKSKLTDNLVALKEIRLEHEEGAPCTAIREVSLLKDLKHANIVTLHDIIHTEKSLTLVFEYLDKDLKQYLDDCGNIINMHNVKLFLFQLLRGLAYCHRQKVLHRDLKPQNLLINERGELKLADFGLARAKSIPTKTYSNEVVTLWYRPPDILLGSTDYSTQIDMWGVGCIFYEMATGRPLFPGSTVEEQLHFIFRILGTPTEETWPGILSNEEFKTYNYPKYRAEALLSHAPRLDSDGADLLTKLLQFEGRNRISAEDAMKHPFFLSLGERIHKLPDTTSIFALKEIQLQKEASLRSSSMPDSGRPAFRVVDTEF
Sequence of HIPK2 (human) (Q9H2X6 whole entry, looked up): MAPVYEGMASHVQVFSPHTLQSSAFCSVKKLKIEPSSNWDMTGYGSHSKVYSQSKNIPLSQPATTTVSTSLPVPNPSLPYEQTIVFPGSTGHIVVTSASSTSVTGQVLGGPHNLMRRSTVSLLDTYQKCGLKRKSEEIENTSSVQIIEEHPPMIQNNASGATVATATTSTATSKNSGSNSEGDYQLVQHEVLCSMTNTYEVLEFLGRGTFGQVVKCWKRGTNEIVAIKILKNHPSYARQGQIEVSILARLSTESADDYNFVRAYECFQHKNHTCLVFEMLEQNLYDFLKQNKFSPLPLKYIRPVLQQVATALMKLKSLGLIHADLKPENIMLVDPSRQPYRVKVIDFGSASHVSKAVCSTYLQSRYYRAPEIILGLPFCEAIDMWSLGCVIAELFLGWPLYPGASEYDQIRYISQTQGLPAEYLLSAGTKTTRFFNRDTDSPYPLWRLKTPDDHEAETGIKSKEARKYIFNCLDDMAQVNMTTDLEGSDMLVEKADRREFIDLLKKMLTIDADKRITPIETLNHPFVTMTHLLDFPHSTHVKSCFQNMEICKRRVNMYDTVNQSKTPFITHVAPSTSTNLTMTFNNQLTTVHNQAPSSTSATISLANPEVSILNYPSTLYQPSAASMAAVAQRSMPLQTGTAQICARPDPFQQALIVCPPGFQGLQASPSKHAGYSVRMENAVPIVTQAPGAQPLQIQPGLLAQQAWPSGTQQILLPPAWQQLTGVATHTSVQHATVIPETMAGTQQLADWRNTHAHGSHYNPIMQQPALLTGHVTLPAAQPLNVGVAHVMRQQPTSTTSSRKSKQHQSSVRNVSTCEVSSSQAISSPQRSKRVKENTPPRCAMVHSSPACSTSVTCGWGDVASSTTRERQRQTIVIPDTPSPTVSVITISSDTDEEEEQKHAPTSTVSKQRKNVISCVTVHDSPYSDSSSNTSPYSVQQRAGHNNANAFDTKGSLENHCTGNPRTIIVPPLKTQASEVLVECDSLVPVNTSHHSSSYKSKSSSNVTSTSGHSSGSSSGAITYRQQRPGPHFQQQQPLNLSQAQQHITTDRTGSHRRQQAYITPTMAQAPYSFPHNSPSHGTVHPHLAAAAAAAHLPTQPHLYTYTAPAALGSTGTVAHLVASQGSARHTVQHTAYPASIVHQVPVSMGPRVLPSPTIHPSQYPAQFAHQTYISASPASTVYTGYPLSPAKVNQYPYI
Sequence of CDC42BPG (human) (Q6DT37 whole entry, looked up): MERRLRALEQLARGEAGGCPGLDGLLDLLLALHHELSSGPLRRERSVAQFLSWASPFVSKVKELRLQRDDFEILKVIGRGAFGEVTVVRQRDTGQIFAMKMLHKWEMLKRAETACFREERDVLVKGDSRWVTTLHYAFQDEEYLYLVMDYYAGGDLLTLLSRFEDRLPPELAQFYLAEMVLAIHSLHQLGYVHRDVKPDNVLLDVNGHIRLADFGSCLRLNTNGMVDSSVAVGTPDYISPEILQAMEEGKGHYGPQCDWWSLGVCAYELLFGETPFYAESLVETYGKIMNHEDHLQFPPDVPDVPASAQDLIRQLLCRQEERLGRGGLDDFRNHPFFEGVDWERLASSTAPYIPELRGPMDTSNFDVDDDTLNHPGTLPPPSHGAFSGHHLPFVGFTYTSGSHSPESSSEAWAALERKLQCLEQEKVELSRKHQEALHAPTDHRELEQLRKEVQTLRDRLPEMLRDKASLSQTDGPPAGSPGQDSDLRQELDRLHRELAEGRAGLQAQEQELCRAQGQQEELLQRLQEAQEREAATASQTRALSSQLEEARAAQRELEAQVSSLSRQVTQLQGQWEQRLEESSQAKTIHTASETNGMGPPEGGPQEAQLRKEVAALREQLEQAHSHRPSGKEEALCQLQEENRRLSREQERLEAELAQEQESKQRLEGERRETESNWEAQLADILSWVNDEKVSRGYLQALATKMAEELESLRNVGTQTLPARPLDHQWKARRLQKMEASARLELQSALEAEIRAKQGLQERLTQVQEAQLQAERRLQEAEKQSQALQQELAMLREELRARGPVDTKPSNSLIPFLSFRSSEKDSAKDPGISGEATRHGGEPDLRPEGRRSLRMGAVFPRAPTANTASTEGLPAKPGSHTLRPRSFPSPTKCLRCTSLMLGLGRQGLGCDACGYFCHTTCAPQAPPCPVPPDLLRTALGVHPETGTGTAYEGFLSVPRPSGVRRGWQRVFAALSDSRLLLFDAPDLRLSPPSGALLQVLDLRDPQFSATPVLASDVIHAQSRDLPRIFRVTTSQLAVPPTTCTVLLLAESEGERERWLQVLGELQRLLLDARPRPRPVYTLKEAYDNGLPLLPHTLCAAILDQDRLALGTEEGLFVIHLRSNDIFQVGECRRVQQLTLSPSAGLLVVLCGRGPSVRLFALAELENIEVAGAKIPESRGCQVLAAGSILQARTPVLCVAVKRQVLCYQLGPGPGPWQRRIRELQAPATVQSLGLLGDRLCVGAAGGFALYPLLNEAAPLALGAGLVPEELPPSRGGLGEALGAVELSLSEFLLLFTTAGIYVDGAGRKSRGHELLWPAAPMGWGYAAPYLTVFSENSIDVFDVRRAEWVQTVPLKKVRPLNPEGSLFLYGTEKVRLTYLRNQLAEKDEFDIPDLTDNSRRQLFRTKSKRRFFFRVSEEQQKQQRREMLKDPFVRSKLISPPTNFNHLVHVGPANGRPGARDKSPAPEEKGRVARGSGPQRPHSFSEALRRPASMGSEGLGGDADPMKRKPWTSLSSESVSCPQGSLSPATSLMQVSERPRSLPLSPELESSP
Sequence of ANKK1 (human) (Q8NFD2 whole entry, looked up): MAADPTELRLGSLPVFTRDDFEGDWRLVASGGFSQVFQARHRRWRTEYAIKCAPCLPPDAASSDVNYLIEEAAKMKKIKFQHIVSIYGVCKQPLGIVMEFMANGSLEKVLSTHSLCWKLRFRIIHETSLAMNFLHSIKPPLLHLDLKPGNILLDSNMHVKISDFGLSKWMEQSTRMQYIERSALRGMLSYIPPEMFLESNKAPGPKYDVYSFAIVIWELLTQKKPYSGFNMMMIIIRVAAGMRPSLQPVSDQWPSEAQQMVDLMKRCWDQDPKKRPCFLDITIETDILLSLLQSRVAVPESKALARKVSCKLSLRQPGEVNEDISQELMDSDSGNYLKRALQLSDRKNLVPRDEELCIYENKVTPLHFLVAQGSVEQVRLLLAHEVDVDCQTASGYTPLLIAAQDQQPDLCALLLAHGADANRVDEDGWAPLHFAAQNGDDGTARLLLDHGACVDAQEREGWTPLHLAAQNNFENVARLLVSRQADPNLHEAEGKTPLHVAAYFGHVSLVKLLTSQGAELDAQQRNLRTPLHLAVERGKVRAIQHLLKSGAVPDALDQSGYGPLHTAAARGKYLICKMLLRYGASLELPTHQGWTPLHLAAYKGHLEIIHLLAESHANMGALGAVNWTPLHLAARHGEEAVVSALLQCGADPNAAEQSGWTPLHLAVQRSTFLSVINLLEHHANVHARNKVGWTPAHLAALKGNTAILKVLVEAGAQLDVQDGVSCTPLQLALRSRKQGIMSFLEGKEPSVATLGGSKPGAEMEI
Sequence of PRKD3 (human) (O94806 whole entry, looked up): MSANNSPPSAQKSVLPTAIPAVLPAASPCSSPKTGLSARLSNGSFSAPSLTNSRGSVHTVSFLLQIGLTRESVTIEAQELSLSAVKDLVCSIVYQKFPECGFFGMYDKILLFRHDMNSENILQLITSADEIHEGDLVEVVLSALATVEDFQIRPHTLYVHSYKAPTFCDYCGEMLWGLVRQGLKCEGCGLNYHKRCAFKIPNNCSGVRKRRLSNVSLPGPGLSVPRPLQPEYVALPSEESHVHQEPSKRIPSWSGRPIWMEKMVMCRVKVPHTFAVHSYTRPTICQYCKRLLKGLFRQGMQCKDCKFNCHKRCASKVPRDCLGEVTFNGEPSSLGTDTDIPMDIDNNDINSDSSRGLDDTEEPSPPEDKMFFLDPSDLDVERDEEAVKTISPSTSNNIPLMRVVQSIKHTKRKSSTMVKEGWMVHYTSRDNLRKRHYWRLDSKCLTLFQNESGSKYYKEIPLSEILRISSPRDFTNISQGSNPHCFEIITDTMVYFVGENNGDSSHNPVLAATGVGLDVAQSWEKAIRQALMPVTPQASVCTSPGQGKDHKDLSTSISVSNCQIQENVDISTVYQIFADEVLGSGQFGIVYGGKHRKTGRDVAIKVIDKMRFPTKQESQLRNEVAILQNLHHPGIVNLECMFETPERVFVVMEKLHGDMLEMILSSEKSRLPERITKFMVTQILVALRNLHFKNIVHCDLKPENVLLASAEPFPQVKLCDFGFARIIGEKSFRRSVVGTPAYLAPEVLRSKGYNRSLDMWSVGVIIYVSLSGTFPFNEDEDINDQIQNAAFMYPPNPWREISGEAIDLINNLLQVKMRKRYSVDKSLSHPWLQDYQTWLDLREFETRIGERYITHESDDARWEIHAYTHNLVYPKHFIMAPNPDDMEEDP

pKd (EPHA3 (human)): 7.44
pKd (RIOK2 (human)): 4.44
pKd (HIPK1 (human)): 5.33
pKd (CDC42BPG (human)): 5.36
pKd [1]: 7.96
pKd (TNK2 (human)): 5.06
pKd (LIMK1 (human)): 4.57
pKd (MAP3K10 (human)): 5.25
pKd (MAP4K2 (human)): 6.01
pKd (PIM3 (human)): 4.89
pKd (CDK8 (human)): 5.96
pKd [2]: 8.59
pKd (MAP2K2 (human)): 5.08
pKd (HIPK2 (human)): 6.00
pKd (ROS1 (human)): 5.60
pKd (EPHB3 (human)): 5.42
pKd (TTK (human)): 5.77
pKd (MAP2K3 (human)): 4.51
pKd (HUNK (human)): 4.92
pKd [3]: 6.64
pKd (HCK (human)): 7.89
pKd (PRKCQ (human)): 4.89
pKd (BTK (human)): 5.05
pKd (PRKD3 (human)): 5.20
pKd (MYLK2 (human)): 5.12
pKd (STK25 (human)): 4.72
pKd (MST1R (human)): 5.19
pKd (LTK (human)): 5.92
pKd (IRAK1 (human)): 5.02
pKd (MERTK (human)): 5.89
pKd [4]: 8.00
pKd (CSF1R (human)): 8.07
pKd [5]: 5.68
pKd (STK10 (human)): 8.77
pKd (CDK16 (human)): 5.80
pKd [6]: 4.48
pKd (FGFR3 (human)): 5.48
pKd [7]: 7.70
pKd (ANKK1 (human)): 5.34
pKd (STK4 (human)): 4.52
Compound: COc1cc2ncnc(Oc3cccc(NC(=O)Nc4cc(C(C)(C)C(F)(F)F)on4)c3)c2cc1OC

Source: the kinase profiling compilation of Christmann-Franck et al. (2016)
